Experimental data: ChEMBL document CHEMBL5303573, “Mapping human microbiome drug metabolism by gut bacteria and their genes” (Nature, 2019)

How the values were obtained:
[1] = bifidobacterium adolescentis, 12 h, 2 µM
Description: The drug is tested on Bifidobacterium adolescentis strain: ATCC 15703 for biotransformation. The drug concentrations were measured before and after a 12-h incubation by liquid-chromatography-coupled mass spectrometry (LC–MS)

[2] = anaerostipes sp., 12 h, 2 µM
Description: The drug is tested on Anaerostipes sp. strain: fecal isolate for biotransformation. The drug concentrations were measured before and after a 12-h incubation by liquid-chromatography-coupled mass spectrometry (LC–MS)

[3] = The drug is tested on Clostridium scindens strain: ATCC35704 for biotransformation. The drug concentrations were measured before and after a 12-h incubation by liquid-chromatography-coupled mass spectrometry (LC–MS); conditions: 2 µM
[4] = parabacteroides distasonis, 12 h, 2 µM
Description: The drug is tested on Parabacteroides distasonis strain: ATCC8503 for biotransformation. The drug concentrations were measured before and after a 12-h incubation by liquid-chromatography-coupled mass spectrometry (LC–MS)

[5] = The drug is tested on Providencia rettgeri strain: DSM1131 for biotransformation. The drug concentrations were measured before and after a 12-h incubation by liquid-chromatography-coupled mass spectrometry (LC–MS); assay type: ADME; parameters: dose 2 uM, timepoint 0 vs 12 hours; conditions: 2 µM
[6] = bacteroides thetaiotaomicron, 12 h, 2 µM
Description: The drug is tested on Bacteroides thetaiotaomicron strain: VPI-5482 for biotransformation. The drug concentrations were measured before and after a 12-h incubation by liquid-chromatography-coupled mass spectrometry (LC–MS)

[7] = The drug is tested on Ruminococcus lactaris strain: ATCC29176 for biotransformation. The drug concentrations were measured before and after a 12-h incubation by liquid-chromatography-coupled mass spectrometry (LC–MS); conditions: 2 µM
[8] = The drug is tested on Bacteroides caccae strain: ATCC43185 for biotransformation. The drug concentrations were measured before and after a 12-h incubation by liquid-chromatography-coupled mass spectrometry (LC–MS); conditions: 2 µM
[9] = The drug is tested on Bacteroides vulgatus strain: ATCC8482 for biotransformation. The drug concentrations were measured before and after a 12-h incubation by liquid-chromatography-coupled mass spectrometry (LC–MS); conditions: phocaeicola vulgatus, 2 µM
[10] = The drug is tested on Escherichia coli strain: BW25113 for biotransformation. The drug concentrations were measured before and after a 12-h incubation by liquid-chromatography-coupled mass spectrometry (LC–MS); conditions: 2 µM
[11] = The drug is tested on Clostridium sporogenes strain: ATCC15579 for biotransformation. The drug concentrations were measured before and after a 12-h incubation by liquid-chromatography-coupled mass spectrometry (LC–MS); conditions: 2 µM
[12] = bacteroides fragilis, 12 h, 2 µM
Description: The drug is tested on Bacteroides fragilis strain: 3397 (T10) for biotransformation. The drug concentrations were measured before and after a 12-h incubation by liquid-chromatography-coupled mass spectrometry (LC–MS)

[13] = The drug is tested on Odoribacter splanchnicus strain: fecal isolate for biotransformation. The drug concentrations were measured before and after a 12-h incubation by liquid-chromatography-coupled mass spectrometry (LC–MS); conditions: 2 µM
[14] = The drug is tested on Blautia hansenii strain: DSM20583 for biotransformation. The drug concentrations were measured before and after a 12-h incubation by liquid-chromatography-coupled mass spectrometry (LC–MS); conditions: 2 µM
[15] = segatella copri, 12 h, 2 µM
Description: The drug is tested on Prevotella copri strain: DSM18205 for biotransformation. The drug concentrations were measured before and after a 12-h incubation by liquid-chromatography-coupled mass spectrometry (LC–MS)

[16] = parabacteroides johnsonii, 12 h, 2 µM
Description: The drug is tested on Parabacteroides johnsonii strain: DSM18315 for biotransformation. The drug concentrations were measured before and after a 12-h incubation by liquid-chromatography-coupled mass spectrometry (LC–MS)

[17] = The drug is tested on Bifidobacterium breve strain: DSM20213 for biotransformation. The drug concentrations were measured before and after a 12-h incubation by liquid-chromatography-coupled mass spectrometry (LC–MS); conditions: 2 µM
[18] = The drug is tested on Clostridium sp. strain: fecal isolate for biotransformation. The drug concentrations were measured before and after a 12-h incubation by liquid-chromatography-coupled mass spectrometry (LC–MS); conditions: 2 µM
[19] = The drug is tested on Bacteroides cellulosilyticus strain: DSM14838 for biotransformation. The drug concentrations were measured before and after a 12-h incubation by liquid-chromatography-coupled mass spectrometry (LC–MS); conditions: 2 µM
[20] = The drug is tested on Enterococcus faecalis strain: V583 for biotransformation. The drug concentrations were measured before and after a 12-h incubation by liquid-chromatography-coupled mass spectrometry (LC–MS); conditions: 2 µM

## Cc1cc2c(cc1S(N)(=O)=O)S(=O)(=O)CCC2
[1]
  Bacterial Biotransformation: Compound NOT metabolized
[2]
  Bacterial Biotransformation: Compound NOT metabolized
[3]
  Bacterial Biotransformation: Compound NOT metabolized
[4]
  Bacterial Biotransformation: Compound NOT metabolized
[5]
  Bacterial Biotransformation: Compound NOT metabolized
[6]
  Bacterial Biotransformation: Compound NOT metabolized
[7]
  Bacterial Biotransformation: Compound NOT metabolized
[8]
  Bacterial Biotransformation: Compound NOT metabolized
[9]
  Bacterial Biotransformation: Compound NOT metabolized
[10]
  Bacterial Biotransformation: Compound NOT metabolized
[11]
  Bacterial Biotransformation: Compound NOT metabolized
[12]
  Bacterial Biotransformation: Compound NOT metabolized
[13]
  Bacterial Biotransformation: Compound NOT metabolized
[14]
  Bacterial Biotransformation: Compound NOT metabolized
[15]
  Bacterial Biotransformation: Compound NOT metabolized
[16]
  Bacterial Biotransformation: Compound NOT metabolized
[17]
  Bacterial Biotransformation: Compound NOT metabolized
[18]
  Bacterial Biotransformation: Compound NOT metabolized
[19]
  Bacterial Biotransformation: Compound NOT metabolized

## COc1ccccc1N1CCN(CC(O)COc2cccc3ccccc23)CC1 (centres undefined) [NAFTOPIDIL]
[1]
  Bacterial Biotransformation: Compound NOT metabolized
[2]
  Bacterial Biotransformation: Compound NOT metabolized
[3]
  Bacterial Biotransformation: Compound NOT metabolized
[4]
  Bacterial Biotransformation: Compound NOT metabolized
[5]
  Bacterial Biotransformation: Compound NOT metabolized
[6]
  Bacterial Biotransformation: Compound NOT metabolized
[7]
  Bacterial Biotransformation: Compound NOT metabolized
[8]
  Bacterial Biotransformation: Compound NOT metabolized
[9]
  Bacterial Biotransformation: Compound NOT metabolized
[10]
  Bacterial Biotransformation: Compound NOT metabolized
[11]
  Bacterial Biotransformation: Compound NOT metabolized
[12]
  Bacterial Biotransformation: Compound NOT metabolized
[13]
  Bacterial Biotransformation: Compound NOT metabolized
[14]
  Bacterial Biotransformation: Compound NOT metabolized
[15]
  Bacterial Biotransformation: Compound NOT metabolized
[20]
  Bacterial Biotransformation: Compound NOT metabolized
[16]
  Bacterial Biotransformation: Compound NOT metabolized
[17]
  Bacterial Biotransformation: Compound NOT metabolized
[18]
  Bacterial Biotransformation: Compound NOT metabolized
[19]
  Bacterial Biotransformation: Compound NOT metabolized

## C[C@H]1O[C@@H](O[C@H]2[C@@H](O)C[C@H](O[C@H]3[C@@H](O)C[C@H](O[C@H]4CC[C@@]5(C)[C@H](CC[C@@H]6[C@@H]5C[C@@H](O)[C@]5(C)[C@@H](C7=CC(=O)OC7)CC[C@]65O)C4)O[C@@H]3C)O[C@@H]2C)C[C@H](O)[C@@H]1O [DIGOXIN]
[1]
  Bacterial Biotransformation: Compound NOT metabolized
[2]
  Bacterial Biotransformation: Compound NOT metabolized
[3]
  Bacterial Biotransformation: Compound NOT metabolized
[4]
  Bacterial Biotransformation: Compound NOT metabolized
[5]
  Bacterial Biotransformation: Compound NOT metabolized
[6]
  Bacterial Biotransformation: Compound metabolized
[7]
  Bacterial Biotransformation: Compound NOT metabolized
[8]
  Bacterial Biotransformation: Compound NOT metabolized
[9]
  Bacterial Biotransformation: Compound metabolized
[10]
  Bacterial Biotransformation: Compound NOT metabolized
[11]
  Bacterial Biotransformation: Compound NOT metabolized
[12]
  Bacterial Biotransformation: Compound metabolized
[13]
  Bacterial Biotransformation: Compound metabolized
[14]
  Bacterial Biotransformation: Compound metabolized
[15]
  Bacterial Biotransformation: Compound NOT metabolized
[20]
  Bacterial Biotransformation: Compound NOT metabolized
[16]
  Bacterial Biotransformation: Compound metabolized
[17]
  Bacterial Biotransformation: Compound NOT metabolized
[18]
  Bacterial Biotransformation: Compound metabolized
[19]
  Bacterial Biotransformation: Compound NOT metabolized

## CCC(C)n1ncn(-c2ccc(N3CCN(c4ccc(OCC5COC(Cn6cncn6)(c6ccc(Cl)cc6Cl)O5)cc4)CC3)cc2)c1=O (centres undefined) [ITRACONAZOLE]
[1]
  Bacterial Biotransformation: Compound NOT metabolized
[2]
  Bacterial Biotransformation: Compound NOT metabolized
[3]
  Bacterial Biotransformation: Compound NOT metabolized
[4]
  Bacterial Biotransformation: Compound NOT metabolized
[5]
  Bacterial Biotransformation: Compound NOT metabolized
[6]
  Bacterial Biotransformation: Compound NOT metabolized
[7]
  Bacterial Biotransformation: Compound NOT metabolized
[8]
  Bacterial Biotransformation: Compound NOT metabolized
[9]
  Bacterial Biotransformation: Compound NOT metabolized
[10]
  Bacterial Biotransformation: Compound NOT metabolized
[11]
  Bacterial Biotransformation: Compound NOT metabolized
[12]
  Bacterial Biotransformation: Compound NOT metabolized
[13]
  Bacterial Biotransformation: Compound NOT metabolized
[14]
  Bacterial Biotransformation: Compound metabolized
[15]
  Bacterial Biotransformation: Compound NOT metabolized
[20]
  Bacterial Biotransformation: Compound NOT metabolized
[16]
  Bacterial Biotransformation: Compound NOT metabolized
[17]
  Bacterial Biotransformation: Compound NOT metabolized
[18]
  Bacterial Biotransformation: Compound metabolized
[19]
  Bacterial Biotransformation: Compound NOT metabolized

## CC(=O)OCC(=O)[C@@]1(OC(C)=O)[C@@H](C)C[C@H]2[C@@H]3C[C@H](F)C4=CC(=O)C=C[C@]4(C)[C@@]3(F)[C@@H](O)C[C@@]21C [DIFLORASONE DIACETATE]
[1]
  Bacterial Biotransformation: Compound metabolized
[2]
  Bacterial Biotransformation: Compound metabolized
[3]
  Bacterial Biotransformation: Compound NOT metabolized
[4]
  Bacterial Biotransformation: Compound metabolized
[5]
  Bacterial Biotransformation: Compound metabolized
[6]
  Bacterial Biotransformation: Compound metabolized
[7]
  Bacterial Biotransformation: Compound NOT metabolized
[8]
  Bacterial Biotransformation: Compound metabolized
[9]
  Bacterial Biotransformation: Compound metabolized
[10]
  Bacterial Biotransformation: Compound metabolized
[11]
  Bacterial Biotransformation: Compound metabolized
[12]
  Bacterial Biotransformation: Compound metabolized
[13]
  Bacterial Biotransformation: Compound metabolized
[14]
  Bacterial Biotransformation: Compound metabolized
[15]
  Bacterial Biotransformation: Compound metabolized
[20]
  Bacterial Biotransformation: Compound NOT metabolized
[16]
  Bacterial Biotransformation: Compound metabolized
[17]
  Bacterial Biotransformation: Compound NOT metabolized
[18]
  Bacterial Biotransformation: Compound metabolized
[19]
  Bacterial Biotransformation: Compound metabolized

## COC1=C(OC)C(=O)C(CCCCCCCCCCO)=C(C)C1=O [IDEBENONE]
[1]
  Bacterial Biotransformation: Compound NOT metabolized
[2]
  Bacterial Biotransformation: Compound metabolized
[3]
  Bacterial Biotransformation: Compound metabolized
[4]
  Bacterial Biotransformation: Compound NOT metabolized
[5]
  Bacterial Biotransformation: Compound NOT metabolized
[6]
  Bacterial Biotransformation: Compound NOT metabolized
[7]
  Bacterial Biotransformation: Compound metabolized
[8]
  Bacterial Biotransformation: Compound metabolized
[9]
  Bacterial Biotransformation: Compound metabolized
[10]
  Bacterial Biotransformation: Compound NOT metabolized
[11]
  Bacterial Biotransformation: Compound metabolized
[12]
  Bacterial Biotransformation: Compound metabolized
[13]
  Bacterial Biotransformation: Compound metabolized
[14]
  Bacterial Biotransformation: Compound NOT metabolized
[15]
  Bacterial Biotransformation: Compound NOT metabolized
[20]
  Bacterial Biotransformation: Compound NOT metabolized
[16]
  Bacterial Biotransformation: Compound NOT metabolized
[17]
  Bacterial Biotransformation: Compound NOT metabolized
[18]
  Bacterial Biotransformation: Compound NOT metabolized
[19]
  Bacterial Biotransformation: Compound NOT metabolized
